Assay results: patent US20240011976A1, “ADDITIVES FOR REDUCING NON-SPECIFIC INTERACTIONS BETWEEN FLUORESCENT POLYMER CONJUGATES AND CELLS IN A BIOLOGICAL SAMPLE” (Beckman Coulter, Inc., priority 2008, published 2024)
Entries after “also recorded” stand apart in the source; their conditions may differ.

Legend:
granulocytes/monocytes = assay: Protein blockers, non-specific interactions of SN v605-CD20 conjugate with granulocytes/monocytes; assay type: cell-based
From the text: The issue of non-specific interaction on monocytes was also observed with conventional tandem dyes (e.g., PC5, PC5.5, PC7, AA700 available from Beckman Coulter, Inc.). To overcome this issue, it was thought that BSA-ox (oxidized BSA) and BSA-Cy5-ox (oxidized Cy5-BSA), which are known protein blockers, might prevent non-specific binding.

monocytes/granulocytes = assay: Blood sample stained with unconjugated polymer dye SN v605 with and without Empigen BB, flow cytometry; assay type: cell-based; settings: SN v605 without antibody, with EMPIGEN BB, FIG. 2
From the text: A blood sample was stained with unconjugated polymer dye SN v605 (without antibody), with and without Empigen BB®, and analyzed in a flow cytometer. […] In FIG. 2, the fluorescent polymer dye SN v605 without antibody was used to stain a blood sample and analyzed in a flow cytometer. […] While not wishing to be bound by any specific theory, it is thought that the polymer is likely adsorbing on the cell surface of monocytes and granulocytes.

positive lymphocytes = assay: Positive lymphocyte signal of SN 428 conjugates with EMPIGEN BB, whole blood flow cytometry; assay type: cell-based; settings: compared to the condition without EMPIGEN
Procedure: (§1) The efficiency of zwitterionic surfactant EMPIGEN BB® on the reduction of non-specific binding with monocytes was evaluated. Other populations were also studied, namely lymphocytes and granulocytes, to evaluate the non-impact of the detergent on MFI and percentage of cells.
(§2) The experimental conditions were generally as follows: • CD19-SN 428 (lot D19-094, polymer lot RDS-042919 (82.7 kD), 1 dose (0.5 μg/test). • CD22-SN 428 (lot D19-109, polymer lot WX-20190624 (86.4 kD), 1 dose (0.5 μg/test). • CD25-SN 428 (lot D19-107, polymer lot RDS-062419 (72.8 kD), 1 dose (0.5 μg/test). • CD19, CD22 and CD25-BV 421 from Becton Dickinson at 1× commercial dose. • Three doses of EMPIGEN BB®0.06%, 0.12%, and 0.2% prepared in conjugate final formulation. • Added 10 μL sample with 100 μL whole blood. • Tested on 2 donors lysing with VersaLyse (lysing solution, used to lyse red blood cells, Beckman Coulter, Inc.)+Fix, one wash. • Navios flow cytometer acquisition on FL9.
(§3) The required x number of tubes were prepared, wherein “x number of tubes” depends on the performance tested. A calculated volume of conjugated antibody (at required dose) was added to each tube. Whole blood (100 μL) was added in each tube. The tubes were gently vortexed for 15 seconds and incubated for 15 to 20 minutes at room temperature at 18-25° C. and protected from light. […]

[1] = Empigen BB concentration in conjugate formulation and during staining versus CMC; assay type: physicochemical
Procedure: The micellar concentration was studied in samples and during the staining to be sure not to exceed critical micellar concentration (CMC). […] CMC was studied in the conjugate formulation and during the staining in 100 μL whole blood. Experiments were conducted to evaluate the impact of addition of EMPIGEN BB® on whole blood cell integrity and also on peripheral blood mononuclear cells (PMBCs).

granulocytes [2] = assay: Non-specific binding of SN 605-CD20 and SN 786-CD103 conjugate lots to granulocytes with and without EMPIGEN BB (MdFI, dot plots); assay type: cell-based; settings: with vs without surfactant (EMPIGEN BB), FIG. 3 and FIG. 6
Procedure: In order to confirm the effect of EMPIGEN BB®, two lots of SN 605-CD20 conjugates were tested in the presence and absence of EMPIGEN BB®. The mean fluorescence intensity (MFI) was compared to the autofluorescence (negative population median fluorescence intensity (MdFI)) of the monocytes from the unstained sample.
Two lots of SN 786-CD103 conjugates were tested in presence and absence of EMPIGEN BB® and the autofluorescence (negative population MdFI) of the monocyte and granulocyte population is compared against an unstained sample.

[3] = 20-25° C.; cited from earlier work
granulocytes [4] = assay: Anionic surfactant NLS, non-specific staining of CD20-SN v605 on granulocytes, peripheral blood flow cytometry; assay type: cell-based; settings: CD20-SN v605, buffer with BSA, sodium azide and NLS, FIG. 17B
Procedure: (§4) In this example, different concentrations (0.16%, 0.08%, 0.04% and 0.02% w/v) of NLS was formulated with SN v605 CD20 conjugate in the presence of BSA and sodium azide and stained peripheral blood samples. Flow cytometry was performed following sample staining.

monocytes [5] = assay: Anionic surfactant NLS, non-specific staining of CD20-SN v605 on monocytes, peripheral blood flow cytometry; assay type: cell-based; settings: CD20-SN v605, buffer with BSA, sodium azide and Empigen BB, FIG. 17B
Procedure: as §4

monocytes [6] = assay: Monocyte background (non-specific binding) of SN 428 conjugates with EMPIGEN BB, whole blood flow cytometry; assay type: cell-based; settings: 0.06 to 0.20% Empigen BB vs absence of surfactant, FIG. 11
Procedure: as §1, §2, §3

whole blood cells = assay: 7-AAD staining, percentage of dead cells in whole blood; assay type: cell-based; settings: up to 0.2% EMPIGEN BB with CD19-SNv428, 7-AAD
Procedure: The percentage of dead cells in whole blood sample with the 7-AAD was evaluated. 7-AAD is a DNA marker, the staining is positive when the cellular membrane is permeabilized. CD19-SNv428 D19-094 without EMPIGEN BB®@(negative control) and with 0.06%, 0.12%, and 0.2% EMPIGEN BB®, was tested on four donors' whole blood, with the 7-ADD, to evaluate the percentage of dead cells in each condition. The goal of the experiment was to verify if the percentage of dead cells is not increased by the EMPIGEN BB® concentration.
Two whole blood samples that had been preserved for greater than 24 hours were added as positive control of 7-AAD staining.
Protocol for 7-AAD staining: • 100 μl whole blood+10 μl CD19-SNv428+/−Empigen, incubation 20 minutes. • Lyse with Versalyse, one wash, • Resuspension in 500 μl PBS 1× • Add 20 μl of 7-AAD (Ref B88526), incubation 15-20 minutes • Navios flow cytometer acquisition: FL4 for 7-AAD and FL9 for CD19-SNv428

Compound	percentage of non-specifically bound monocytes and granulocytes / controlling non-specific interactions (granulocytes/monocytes; FIG. 10)	non-specific binding of polymer dye to monocytes/granulocytes (monocytes/granulocytes)	variation of the positive signal on lymphocytes (positive lymphocytes)	concentration relative to CMC, formulation in the vial ([1]; 0.2% in the vial)	Empigen BB concentration, formulation in the vial ([1]; 0.2%, 2 g/L, 279 g/mol)	concentration relative to CMC during the staining ([1]; 100 μL WB, 10 μl conjugate)	Empigen BB concentration during the staining ([1]; 100 μL WB, 10 μl conjugate, dilution factor 11)	percentage of non-specifically bound granulocytes (dot plot gate) (granulocytes [2])	CMC [3]	% population in the gate Grans Non-specific binding (granulocytes [4])	% population in the gate Mons Non-specific binding (monocytes [5])	non-specific monocyte interactions (negative monocyte MFI) (monocytes [6])	percentage of dead cells / whole blood cell death (whole blood cells)	percentage of non-specifically bound monocytes and granulocytes / controlling non-specific interactions (granulocytes/monocytes; FIG. 10, listed as oxidized BSA)
BSA-Cy5-ox: oxidized Cy5-BSA, known protein blocker	inefficient; also recorded: not substantially reduced	–	–	–	–	–	–	–	–	–	–	–	–	–
CCCCCCCCCCCC[N+](C)(C)CC(=O)[O-] [EMPIGEN BB®, N,N-dimethyl-N-dodecylglycine betaine]	–	substantially reduced; also recorded: reduced drastically; also recorded: substantial decrease	did not induce a significant variation	> CMC within the conjugate formulation	7.2 mM	< CMC during the staining	0.65 mM	reduced	1.6 to 2.1 mM	0.68%	0.64%	lower percent of non-specific monocyte interactions	does not induce whole blood cell permeabilization or death; also recorded: didn't induce whole blood cell death; also recorded: not substantially increased	–
BSA-ox: oxidized BSA, known protein blocker	inefficient	–	–	–	–	–	–	–	–	–	–	–	–	not substantially reduced
